In patent publication US20250382268A1, “METHODS AND COMPOSITIONS FOR SELECTIVELY INHIBITING PATHOGENIC MICROBES” (priority 2019, published 2025):
In brackets after ≈: the same amount, converted by molar mass. Like-named read-outs stand apart in the source and are kept apart here.

What was measured:
Bacillus thuringiensis = assay: microbe, parasite or virus in culture; type: cell-based
[1] = system: Burkholderia thailandensis; assay: microbe, parasite or virus in culture; type: cell-based
Bacillus subtilis = assay: MIC/MBC against Bacillus subtilis strains; type: cell-based
Candida glabrata = assay: microbe, parasite or virus in culture; type: cell-based; conditions: Nakaseomyces glabratus
Burkholderia cenocepacia = assay: microbe, parasite or virus in culture; type: cell-based
HepG2 cells [2] = assay: Cytotoxicity MTT assay in HepG2 cells; type: cell-based; conditions: Homo sapiens
Procedure: Additionally, the antimicrobial compounds were analyzed for cytotoxicity. […] We utilized the standard MTT assay (Promega CellTiter 96) and GraphPad Prism 7 software to determine EC50 values for each analogue. Briefly, 20,000 HepG2 cells in 200 μl of the ATCC recommended media were seeded in each well of a 96-well plate with a moisture barrier created in the outermost wells. The cells were allowed to attach overnight at 37° C., and then observed under phase contrast microscopy for proper morphological characteristics. […] Once incubations were complete, the spectrophotometric absorbance of the samples was measured at a wavelength of 595 nm. […] For the HepaRG assay, NoSpin HepaRG™ cells (Lonza, cat #NSHPRG) were thawed and plated with 20,000 cells per well. They were allowed to attach for 4 h (optimal DME profile per Lonza's testing) before dosing following the identical protocol as above.

S. aureus [3] = assay: Macromolecular synthesis assay (glucosamine incorporation into cell wall); type: cell-based, Staphylococcus aureus; conditions: dose-response, FIG. 2A-2B
[4] = system: branched chain amino acid synthesis pathway; assay: Transcriptomic (RNAseq) and metabolic mechanism of action studies
S. aureus [5] = assay: SYTOX green cell permeability assay on S. aureus; type: cell-based, Staphylococcus aureus; conditions: concentrations relative to the MIC, FIG. 1A
HepG2 cells [6] = assay: SYTOX permeabilization assay on HepG2 cells; type: cell-based; conditions: up to 4× MIC, FIG. 2C
Staphylococcus aureus = assay: microbe, parasite or virus in culture

Brc1ccc(Oc2c[nH]c3cc(Br)ccc23)cc1 [174AC, 6-bromo-3-(4-bromophenoxy)-1H-indole] was tested, and the MBC (Bacillus thuringiensis) was 50 mg/L (≈ 136 µM), the MIC (Bacillus thuringiensis; Bacillus thuringiensis Berliner ATCC: 10792) was 8 mg/L (≈ 21.8 µM) and the MIC [1] was > 50 mg/L. It also gave an MBC (Bacillus subtilis) of 16 mg/L (≈ 43.6 µM), an MIC (Bacillus subtilis) of 8 mg/L (≈ 21.8 µM) and an MIC (Candida glabrata) of 25 mg/L (≈ 68.1 µM). For the same compound, the MIC (Burkholderia cenocepacia) was > 50 mg/L.

For Brc1ccc2[nH]cc(Sc3ccccc3Br)c2c1 [Compound 174I, 5-bromo-3-((2-bromophenyl)thio)-1H-indole], the EC50 (HepG2 cells [2]) was 25.4 mg/L (≈ 66.3 µM), the “cell wall synthesis inhibition (glucosamine incorporation)” value (S. aureus [3]) was “substantial cell wall synthesis inhibition” and the “mechanism of action by transcriptomic and metabolic studies” value [4] was “branched chain amino acid biosynthesis inhibition”. For the same compound, the “cell permeability by SYTOX green fluorescence” value (S. aureus [5]) was “clear dose-dependent increase in permeability” and the “permeabilization of HepG2 cells (SYTOX)” value (HepG2 cells [6]) was “no permeabilization of HepG2 cells”.

In the case of Nc1ccccc1Sc1c[nH]c2ccc(Br)cc12 [Compound 174M, 2-((5-bromo-1H-indol-3-yl)thio)aniline], the MIC (Staphylococcus aureus; MRSA, read-out: Staphylococcus aureus MIC, MRSA strain HM-467) is reported as 12.5 mg/L (≈ 39.2 µM), the MIC (Staphylococcus aureus; MRSA, read-out: Staphylococcus aureus MIC, MRSA strain NK-41886) is reported as 12.5 mg/L (≈ 39.2 µM) and the MIC (Staphylococcus aureus; MRSA, read-out: Staphylococcus aureus MIC, MRSA strain NR-13533) is reported as 12.5 mg/L (≈ 39.2 µM). The MIC (Staphylococcus aureus; MRSA, read-out: Staphylococcus aureus MIC, MRSA strain NR-28983) was 12.5 mg/L (≈ 39.2 µM), the MIC (Staphylococcus aureus; MRSA, read-out: Staphylococcus aureus MIC, MRSA strain NR-41875) was 12.5 mg/L (≈ 39.2 µM) and the MIC (Staphylococcus aureus; MRSA, read-out: Staphylococcus aureus MIC, MRSA strain NR-41876) was 12.5 mg/L (≈ 39.2 µM). The MIC (Staphylococcus aureus; MRSA, read-out: Staphylococcus aureus MIC, MRSA strain NR-41877) was 25 mg/L (≈ 78.3 µM), the MIC (Staphylococcus aureus; MRSA, read-out: Staphylococcus aureus MIC, MRSA strain NR-41878) was 12.5 mg/L (≈ 39.2 µM) and the MIC (Staphylococcus aureus; read-out: Staphylococcus aureus MIC, VSSA NR-49121) was 12.5 mg/L (≈ 39.2 µM). The EC50 (HepG2 cells [2]) was 26.5 mg/L (≈ 83 µM), the “mechanism of action by transcriptomic and metabolic studies” value [4] was “branched chain amino acid biosynthesis inhibition” and the “permeabilization of HepG2 cells (SYTOX)” value (HepG2 cells [6]) was “no permeabilization of HepG2 cells”.

CN[C@H](CC(C)C)C(=O)N[C@H]1C(=O)N[C@@H](CC(N)=O)C(=O)N[C@H]2C(=O)N[C@H]3C(=O)N[C@H](C(=O)N[C@H](C(=O)O)c4cc(O)cc(O)c4-c4cc3ccc4O)[C@H](O)c3ccc(c(Cl)c3)Oc3cc2cc(c3O[C@@H]2O[C@H](CO)[C@@H](O)[C@H](O)[C@H]2O[C@H]2C[C@](C)(N)[C@H](O)[C@H](C)O2)Oc2ccc(cc2Cl)[C@H]1O [vancomycin, reference compound] was tested, and the “cell wall synthesis inhibition (glucosamine incorporation)” value (S. aureus [3]) was “increasingly inhibits glucosamine from incorporating into a cell wall”.
